Entries after “also recorded” stand apart in the source; their conditions may differ.
System: Plasmodium falciparum 3D7
Test: In vitro antimalarial image-based asexual assay, 3D7
Format: cell-based
Settings: N-Boc group of compound 7 removed
Description: (§1) Plasmodium falciparum 3D7 and Dd2 parasites were cultured in RPMI1640 (Life Technologies, Camarillo, CA, USA) supplemented with 2.5 mg/mL Albumax II, 5% AB human serum, 25 mM HEPES and 0.37 mM hypoxanthine. Ring-stage parasites were treated with compounds following two rounds of sorbitol synchronisation as previously described. Artesunate, pyrimethamine and puromycin were incorporated as controls. Following incubation of assay plates for 72 h at 37 °C, and 5% CO2 and 5% O2, parasites were stained with 2-(4-amidinophenyl)-1H-indole-6-carboxamidine (DAPI) and imaged using an Opera QEHS confocal imaging system (PerkinElmer, Waltham, MA, USA). Images were analysed as previously described using Acapella spot detection software (PerkinElmer, Waltham, MA, USA).

SMILES | fold increase of antimalarial activity against 3D7 versus compound 7 [fold]
NCCc1c[nH]c2c1C(=O)C1=C(NC=C(I)S1(=O)=O)C2=O [Compound 9] | 2.5

Same assay, conditions: Plasmodium falciparum, 3D7; chloroquine-sensitive strain; 72 h; n = 4; mean ± SD; read-out: Pf 3D7 IC50 ± SD

SMILES | IC50 [nM]
CC(C)(C)OC(=O)NCCc1c[nH]c2c1C(=O)C1=C(NC=C(Br)S1(=O)=O)C2=O [Compound 3] | 3520 ± 350
CC(C)(C)OC(=O)NCCc1c(Br)[nH]c2c1C(=O)C1=C(NC=C(Br)S1(=O)=O)C2=O [Compound 4] | 1370 ± 117
NCCc1c[nH]c2c1C(=O)C1=C(NC=C(Br)S1(=O)=O)C2=O [Compound 5] | 559 ± 145
NCCc1c(Br)[nH]c2c1C(=O)C1=C(NC=C(Br)S1(=O)=O)C2=O [Compound 6] | 1650 ± 194
CC(C)(C)OC(=O)NCCc1c[nH]c2c1C(=O)C1=C(NC=C(I)S1(=O)=O)C2=O [Compound 7] | 5620 ± 383
NCCc1c[nH]c2c1C(=O)C1=C(NC=C(I)S1(=O)=O)C2=O [Compound 9] | 2220 ± 248

Stronger by IC50, values ahead:

IC50 [nM] | SMILES
61 ± 9 | NCCc1c[nH]c2c1C(=O)C1=C(NC=CS1(=O)=O)C2=O [Compound 1, thiaplakortone A]
227 ± 44 | CC(C)(C)OC(=O)NCCc1c[nH]c2c1C(=O)C1=C(NC=CS1(=O)=O)C2=O [Compound 2, Boc-protected thiaplakortone A]

Same assay, conditions: SI = HEK293 IC50/parasite IC50

SMILES | SI for 3D7
NCCc1c[nH]c2c1C(=O)C1=C(NC=CS1(=O)=O)C2=O [Compound 1, thiaplakortone A] | 22
CC(C)(C)OC(=O)NCCc1c[nH]c2c1C(=O)C1=C(NC=CS1(=O)=O)C2=O [Compound 2, Boc-protected thiaplakortone A] | 24
CC(C)(C)OC(=O)NCCc1c[nH]c2c1C(=O)C1=C(NC=C(Br)S1(=O)=O)C2=O [Compound 3] | >23
CC(C)(C)OC(=O)NCCc1c(Br)[nH]c2c1C(=O)C1=C(NC=C(Br)S1(=O)=O)C2=O [Compound 4] | >58
NCCc1c[nH]c2c1C(=O)C1=C(NC=C(Br)S1(=O)=O)C2=O [Compound 5] | >143
NCCc1c(Br)[nH]c2c1C(=O)C1=C(NC=C(Br)S1(=O)=O)C2=O [Compound 6] | >48
CC(C)(C)OC(=O)NCCc1c[nH]c2c1C(=O)C1=C(NC=C(I)S1(=O)=O)C2=O [Compound 7] | >14
NCCc1c[nH]c2c1C(=O)C1=C(NC=C(I)S1(=O)=O)C2=O [Compound 9] | >36

Same assay, conditions: bromine at C-2 replaced with iodine

SMILES | fold reduction of antimalarial activity against 3D7 versus compound 5 [fold]
NCCc1c[nH]c2c1C(=O)C1=C(NC=C(I)S1(=O)=O)C2=O [Compound 9] | 3.9

Same assay, conditions: compound 4 after Boc removal

SMILES | fold decrease in antimalarial activity against 3D7 upon removal of the Boc group [fold]
CC(C)(C)OC(=O)NCCc1c(Br)[nH]c2c1C(=O)C1=C(NC=C(Br)S1(=O)=O)C2=O [Compound 4] | 1.2

System: HEK293 cells
Test: not given
Parameters: method as in PMID 24032556
Settings: cited from earlier work

SMILES | cytotoxicity against HEK293 cells
NCCc1c[nH]c2c1C(=O)C1=C(NC=CS1(=O)=O)C2=O [Compound 1, thiaplakortone A] | low cytotoxicity

System: Plasmodium falciparum Dd2
Test: not given
Parameters: method as in PMID 24032556
Settings: HEK293 vs Dd2; cited from earlier work

SMILES | selectivity index against Dd2
NCCc1c[nH]c2c1C(=O)C1=C(NC=CS1(=O)=O)C2=O [Compound 1, thiaplakortone A] | 591

Same assay, conditions: drug-resistant strain; read-out: IC50 Pf (Dd2); cited from earlier work

SMILES | IC50 [nM]
NCCc1c[nH]c2c1C(=O)C1=C(NC=CS1(=O)=O)C2=O [Compound 1, thiaplakortone A] | 6.6

System: HEK293 cells
Test: In vitro cytotoxicity assay (Alamar Blue)
Format: cell-based, human
Settings: 80 μM (top screening concentration)
Description: Human embryonic kidney cells (HEK293) were maintained in DMEM (Life Technologies, Camarillo, CA, USA) containing 10% FBS (Hyclone™ ThermoFisher, Melbourne, Australia). Cytotoxicity testing was undertaken as previously described. In brief, 5 μL of test compound was added/well of black/clear tissue culture treated 384-well plates containing 3000 adherent HEK293 cells/well in 45 μL and incubated 72 h at 37 °C in 5% CO2. After incubation, the supernatant was removed and replaced with 40 μL of 10% Alamar Blue per well. Plates were incubated for 5–6 h and measured for fluorescence at 530 nm excitation and 595 nm emission. The % inhibition was calculated using 0.4% DMSO (no inhibition) and 5 μM puromycin (100% inhibition) data. IC50 values were obtained by plotting % inhibition against log dose using GraphPad Prism v.6 (San Diego, CA, USA), nonlinear regression with a variable slope plot.

SMILES | cytotoxicity against HEK293 cells observed at 80 μM
NCCc1c[nH]c2c1C(=O)C1=C(NC=C(Br)S1(=O)=O)C2=O [Compound 5] | minimal cytotoxicity; also recorded: minimal toxicity

Same assay, conditions: HEK293; human embryonic kidney cells; 72 h; n = 2; mean ± SD

SMILES | IC50 [nM]
NCCc1c[nH]c2c1C(=O)C1=C(NC=CS1(=O)=O)C2=O [Compound 1, thiaplakortone A] | 1320 ± 92
CC(C)(C)OC(=O)NCCc1c[nH]c2c1C(=O)C1=C(NC=CS1(=O)=O)C2=O [Compound 2, Boc-protected thiaplakortone A] | 5530 ± 21
CC(C)(C)OC(=O)NCCc1c[nH]c2c1C(=O)C1=C(NC=C(Br)S1(=O)=O)C2=O [Compound 3] | > 80000
CC(C)(C)OC(=O)NCCc1c(Br)[nH]c2c1C(=O)C1=C(NC=C(Br)S1(=O)=O)C2=O [Compound 4] | > 80000
NCCc1c[nH]c2c1C(=O)C1=C(NC=C(Br)S1(=O)=O)C2=O [Compound 5] | > 80000
NCCc1c(Br)[nH]c2c1C(=O)C1=C(NC=C(Br)S1(=O)=O)C2=O [Compound 6] | > 80000
CC(C)(C)OC(=O)NCCc1c[nH]c2c1C(=O)C1=C(NC=C(I)S1(=O)=O)C2=O [Compound 7] | > 80000
NCCc1c[nH]c2c1C(=O)C1=C(NC=C(I)S1(=O)=O)C2=O [Compound 9] | > 80000

System: Plasmodium falciparum Dd2
Test: In vitro antimalarial image-based asexual assay, Dd2
Format: cell-based
Settings: N-Boc group of compound 7 removed
Description: as §1

SMILES | fold increase of antimalarial activity against Dd2 versus compound 7 [fold]
NCCc1c[nH]c2c1C(=O)C1=C(NC=C(I)S1(=O)=O)C2=O [Compound 9] | 3.7

Same assay, conditions: Plasmodium falciparum, DD2; chloroquine, pyrimethamine and mefloquine drug-resistant strain; 72 h; n = 4; mean ± SD; read-out: Pf Dd2 IC50 ± SD

SMILES | IC50 [nM]
CC(C)(C)OC(=O)NCCc1c[nH]c2c1C(=O)C1=C(NC=C(Br)S1(=O)=O)C2=O [Compound 3] | 583 ± 94
CC(C)(C)OC(=O)NCCc1c(Br)[nH]c2c1C(=O)C1=C(NC=C(Br)S1(=O)=O)C2=O [Compound 4] | 2060 ± 192
NCCc1c[nH]c2c1C(=O)C1=C(NC=C(Br)S1(=O)=O)C2=O [Compound 5] | 58 ± 16
NCCc1c(Br)[nH]c2c1C(=O)C1=C(NC=C(Br)S1(=O)=O)C2=O [Compound 6] | 487 ± 98
CC(C)(C)OC(=O)NCCc1c[nH]c2c1C(=O)C1=C(NC=C(I)S1(=O)=O)C2=O [Compound 7] | 1190 ± 270
NCCc1c[nH]c2c1C(=O)C1=C(NC=C(I)S1(=O)=O)C2=O [Compound 9] | 317 ± 8

Results, then the compound that gave them:

IC50 [nM] | SMILES
8 ± 1 | NCCc1c[nH]c2c1C(=O)C1=C(NC=CS1(=O)=O)C2=O [Compound 1, thiaplakortone A]
86 ± 12 | CC(C)(C)OC(=O)NCCc1c[nH]c2c1C(=O)C1=C(NC=CS1(=O)=O)C2=O [Compound 2, Boc-protected thiaplakortone A]

Same assay, conditions: SI = HEK293 IC50/parasite IC50

SMILES | SI for Dd2
NCCc1c[nH]c2c1C(=O)C1=C(NC=CS1(=O)=O)C2=O [Compound 1, thiaplakortone A] | 150
CC(C)(C)OC(=O)NCCc1c[nH]c2c1C(=O)C1=C(NC=CS1(=O)=O)C2=O [Compound 2, Boc-protected thiaplakortone A] | 64
CC(C)(C)OC(=O)NCCc1c[nH]c2c1C(=O)C1=C(NC=C(Br)S1(=O)=O)C2=O [Compound 3] | >137
CC(C)(C)OC(=O)NCCc1c(Br)[nH]c2c1C(=O)C1=C(NC=C(Br)S1(=O)=O)C2=O [Compound 4] | >39
NCCc1c[nH]c2c1C(=O)C1=C(NC=C(Br)S1(=O)=O)C2=O [Compound 5] | >1379
NCCc1c(Br)[nH]c2c1C(=O)C1=C(NC=C(Br)S1(=O)=O)C2=O [Compound 6] | >164
CC(C)(C)OC(=O)NCCc1c[nH]c2c1C(=O)C1=C(NC=C(I)S1(=O)=O)C2=O [Compound 7] | >67
NCCc1c[nH]c2c1C(=O)C1=C(NC=C(I)S1(=O)=O)C2=O [Compound 9] | >252

Same assay, conditions: bromine at C-2 replaced with iodine

SMILES | fold reduction of antimalarial activity against Dd2 versus compound 5 [fold]
NCCc1c[nH]c2c1C(=O)C1=C(NC=C(I)S1(=O)=O)C2=O [Compound 9] | 5.5

System: Plasmodium falciparum 3D7
Test: not given
Parameters: method as in PMID 24032556
Settings: HEK293 vs 3D7; cited from earlier work

SMILES | selectivity index against 3D7
NCCc1c[nH]c2c1C(=O)C1=C(NC=CS1(=O)=O)C2=O [Compound 1, thiaplakortone A] | 76

Same assay, conditions: drug-sensitive strain; read-out: IC50 Pf (3D7); cited from earlier work

SMILES | IC50 [nM]
NCCc1c[nH]c2c1C(=O)C1=C(NC=CS1(=O)=O)C2=O [Compound 1, thiaplakortone A] | 51
